Like-named read-outs stand apart in the source and are kept apart here.
What was measured:
Format in all cases: in vivo
Myzus persicae [1] = test: Myzus persicae oral test; settings: 120 h, read-out: efficacy
Method: Solvent: 100 parts by weight of acetone
To produce a suitable preparation of active compound, 1 part by weight of active compound is dissolved using the specified parts by weight of solvent and made up with water until the desired concentration is attained.
50 μl of the active compound preparation are transferred into microtitre plates and made up to a final volume of 200 μl with 150 μl of IPL41 insect medium (33%+15% sugar). Subsequently, the plates are sealed with parafilm, which a mixed population of green peach aphids (Myzus persicae) within a second microtitre plate is able to puncture and imbibe the solution through it.
(§1) After 5 days, the efficacy in % is determined. 100% means that all the aphids have been killed; 0% means that no aphids have been killed.

Myzus persicae [2] = test: Myzus persicae spray test; settings: foliar, 120 h, application rate 100 g/ha, Chinese cabbage leaf discs, after 5 days, read-out: efficacy
Method: Myzus persicae—Spray Test
(§2) Solvent: • 78 parts by weight of acetone • 1.5 parts by weight of dimethylformamide
(§3) Emulsifier: alkylaryl polyglycol ether
(§4) To produce a suitable active compound preparation, 1 part by weight of active compound is dissolved using the stated parts by weight of solvent and made up with water containing an emulsifier concentration of 1000 ppm until the desired concentration is attained. To produce further test concentrations, the formulation is diluted with emulsifier-containing water.
Discs of Chinese cabbage leaves (Brassica pekinensis) infested by all stages of the green peach aphid (Myzus persicae) are sprayed with an active compound formulation of the desired concentration.
as §1

Phaedon cochleariae = Phaedon cochleariae spray test; settings: foliar, 168 h, read-out: efficacy
Method: Phaedon cochleariae—Spray Test
(§5) Solvent: • 78.0 parts by weight of acetone • 1.5 parts by weight of dimethylformamide
as §3, §4
Discs of Chinese cabbage leaves (Brassica pekinensis) are sprayed with an active compound formulation of the desired concentration and, after drying, populated with larvae of the mustard beetle (Phaedon cochleariae).
After 7 days, the efficacy in % is determined. 100% means that all the beetle larvae have been killed; 0% means that no beetle larvae have been killed.

Spodoptera frugiperda = Spodoptera frugiperda spray test; settings: foliar, 168 h, read-out: efficacy
Method: Spodoptera frugiperda—Spray Test
as §5, §3
To produce further test concentrations, the formulation is diluted with emulsifier-containing water.
After 7 days, the efficacy in % is determined. 100% means that all the caterpillars have been killed; 0% means that no caterpillar has been killed.

Ctenocephalides felis = Ctenocephalides felis oral test; settings: 48 h, application rate 100 ppm, in citrated cattle blood, after 2 days, read-out: efficacy (kill in %)
Method: Ctenocephalides felis—Oral Test
Solvent: Dimethyl sulfoxide
To produce a suitable active compound formulation, 10 mg of active compound are mixed with 0.5 ml of dimethyl sulfoxide. Dilution with citrated cattle blood gives the desired concentration.
About 20 unfed adult cat fleas (Ctenocephalides felis) are placed into a chamber which is closed at the top and bottom with gauze. A metal cylinder whose bottom end is closed with parafilm is placed onto the chamber. The cylinder contains the blood/active compound formulation, which can be imbibed by the fleas through the parafilm membrane.
After 2 days, the kill in % is determined. 100% means that all of the fleas have been killed; 0% means that none of the fleas have been killed.

Diabrotica balteata = Diabrotica balteata spray test; settings: 168 h, application rate 160 μg/cavity (μg/well), wheat grains, after 7 days, read-out: efficacy
Method: Diabrotica balteata—Spray Test
as §2, §3, §4
Pre-swollen wheat grains (Triticum aestivum) are incubated in a multiwell plate filled with agar and a little water for one day (5 seed grains per well). The germinated wheat grains are sprayed with an active compound preparation of the desired concentration. Subsequently, each cavity is infected with 10-20 beetle larvae of Diabrotica balteata.
After 7 days, the efficacy in % is determined. 100% means that all wheat plants have grown as in the untreated, uninfected control; 0% means that no wheat plant has grown.

[3] = application rate 4 ppm, after 5 days
[4] = application rate 100 g/ha, Chinese cabbage leaf discs, after 7 days
[5] = application rate 100 g/ha, maize leaf discs, after 7 days

SMILES	pest or weed control at 4 ppm (Myzus persicae [1]; [3]) [%]	pest or weed control at 100 g/ha (Myzus persicae [2]) [%]	pest or weed control at 100 g/ha (Spodoptera frugiperda; [5]) [%]	pest or weed control at 160 µg/well (Diabrotica balteata) [%]	further results
CCS(=O)(=O)c1c(-c2nc3cc(C(F)(F)F)cnc3n2C)ncc2cc(C#N)ccc12 [Example I-001]	100	90	100	–	pest or weed control at 100 g/ha (Phaedon cochleariae; [4]): 100%
CCS(=O)(=O)c1c(-c2nc3cc(C(F)(F)F)cnc3n2C)ncc2cc(SCC(F)(F)F)ccc12 [Example I-002]	100	90	–	–	pest or weed control at 100 g/ha (Phaedon cochleariae; [4]): 100%
CCS(=O)(=O)c1c(-c2nc3cc(C(F)(F)F)nnc3n2C)ncc2cc(C)ccc12 [Example I-003]	100	90	–	–	pest or weed control at 100 ppm (Ctenocephalides felis): 80%
CCS(=O)(=O)c1c(-c2nc3cc(C(F)(F)F)cnc3n2C)ncc2cc(C3CC3)ccc12 [Example I-007]	100	–	67	–	pest or weed control at 100 g/ha (Phaedon cochleariae; [4]): 100%
CCS(=O)(=O)c1c(-c2nc3cc(C(F)(F)C(F)(F)F)cnc3n2C)ncc2c(C(F)(F)F)cccc12 [Example I-014]	90	100	100	–	pest or weed control at 100 g/ha (Phaedon cochleariae; [4]): 100%
CCS(=O)(=O)c1c(-c2nc3cc(S(=O)(=O)C(F)(F)F)cnc3n2C)ncc2cc(Br)ccc12 [Example I-016]	100	–	100	100	–
CCS(=O)(=O)c1c(-c2nc3cc(C(F)(F)F)ncc3n2C)ncc2c(Br)cccc12 [Example I-018]	100	100	–	100	–
CCS(=O)(=O)c1c(-c2nc3cc(C(F)(F)C(F)(F)F)ncc3n2C)ncc2c(Br)cccc12 [Example I-019]	100	–	100	100	–
CCS(=O)(=O)c1c(-c2nc3cc(C(F)(F)F)cnc3n2C)ncc2ccc(C(F)(F)F)cc12 [Example I-021]	100	–	100	–	pest or weed control at 100 g/ha (Phaedon cochleariae; [4]): 100%
CCS(=O)(=O)c1c(-c2nc3cc(C(F)(F)F)cnc3n2C)ncc2cc(NC(=O)OC)ccc12 [Example I-022]	–	–	–	–	pest or weed control at 4 ppm (Myzus persicae [1]): 100%; pest or weed control at 100 g/ha (Phaedon cochleariae; in Brassica rapa): 100%; pest or weed control at 100 g/ha (Spodoptera frugiperda; in Zea mays): 100%
CCS(=O)(=O)c1c(-c2nc3cc(C(F)(F)F)nnc3n2C)ncc2cc(Br)ccc12 [Example I-028]	100	90	100	80	–
CCS(=O)(=O)c1c(-c2nc3cc(S(=O)(=O)C(F)(F)F)cnc3n2C)ncc2c(Br)cccc12 [Example I-029]	100	90	100	100	–
CCS(=O)(=O)c1c(-c2nc3cc(C(F)(F)C(F)(F)F)cnc3n2C)ncc2c(C#N)cccc12 [Example I-030]	100	–	100	100	–
CCS(=O)(=O)c1c(-c2nc3cc(C(F)(F)C(F)(F)F)cnc3n2C)ncc2c(Cl)cccc12 [Example I-031]	100	–	100	100	–
CCS(=O)(=O)c1c(-c2nc3cc(C(F)(F)F)cnc3n2C)ncc2cc(OC)ccc12 [Example I-033]	100	–	100	–	–
CCS(=O)(=O)c1c(-c2nc3cc(C(F)(F)F)cnc3n2C)ncc2cc(NC(C)=O)ccc12 [Example I-035]	100	90	–	–	pest or weed control at 100 g/ha (Phaedon cochleariae; [4]): 100%
CCS(=O)(=O)c1c(-c2nc3cc(C(F)(F)F)cnc3n2C)ncc2cc(NC(=O)C3CC3)ccc12 [Example I-038]	100	–	100	–	pest or weed control at 100 g/ha (Phaedon cochleariae; [4]): 100%
CCS(=O)(=O)c1c(-c2nc3cc(C(F)(F)F)nnc3n2C)ncc2ccc(Cl)cc12 [Example I-039]	100	–	100	100	–
CCS(=O)(=O)c1c(-c2nc3cc(C(F)(F)C(F)(F)F)nnc3n2C)ncc2cc(Br)ccc12 [Example I-043]	100	90	100	100	–
CCS(=O)(=O)c1c(-c2nc3cc(C(F)(F)F)nnc3n2C)ncc2ccc(C)cc12 [Example I-044]	100	90	–	100	–
CCS(=O)(=O)c1c(-c2nc3cc(C(F)(F)F)nnc3n2C)ncc2ccc(C(F)(F)F)cc12 [Example I-045]	100	100	100	100	–
CCS(=O)(=O)c1c(-c2nc3cc(C(F)(F)C(F)(F)F)nnc3n2C)ncc2c(Br)cccc12 [Example I-046]	100	–	100	100	–
CCS(=O)(=O)c1c(-c2nc3cc(C(F)(F)C(F)(F)F)cnc3n2C)ncc2cc(OCC(F)(F)F)ccc12 [Example I-048]	–	–	100	100	–
CCS(=O)(=O)c1c(-c2nc3cc(C(F)(F)C(F)(F)F)cnc3n2C)ncc2cc(OCC(F)F)ccc12 [Example I-049]	–	–	100	80	–
CCS(=O)(=O)c1c(-c2nc3cc(C(F)(F)C(F)(F)F)cnc3n2C)ncc2cc(C3CC3)ccc12 [Example I-050]	90	–	100	100	–
CCS(=O)(=O)c1c(-c2nc3cc(C(F)(F)C(F)(F)F)nnc3n2C)ncc2cc(C#N)ccc12 [Example I-051]	100	–	100	100	–
CCS(=O)(=O)c1c(-c2nc3cc(C(F)(F)C(F)(F)F)nnc3n2C)ncc2c(Cl)cccc12 [Example I-052]	100	–	100	100	–
CCS(=O)(=O)c1c(-c2nc3cc(C(F)(F)C(F)(F)F)cnc3n2C)ncc2cc(OCC(C)(F)F)ccc12 [Example I-053]	–	–	100	100	–

Reference: patent publication US20230060425A1, “FUSED BICYCLIC HETEROCYCLE DERIVATIVES AS PESTICIDES” (Bayer Aktiengesellschaft, priority 2019, published 2023)
